Measurements taken from patent publication US11370798B2 (Vertex Pharmaceuticals Incorporated, priority 2012, dated 2022).

The compounds below were run on HCT116 colorectal cancer cells (assay: Cisplatin sensitization assay (96 h cell viability MTS)). Conditions: compound and Cisplatin added simultaneously, Cisplatin sensitization value.
Assay type: cell-based
Procedure, shortened: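 Compound and cisplatin added together as a full matrix of 2-fold serial dilutions from a top final concentration of 10 μM; cells incubated 96 h at 37° C, 5% CO2. Viability then read by MTS after 1 h further incubation; sensitization value reported in μM bins.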
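Also: Test-compound concentration that lowers the Cisplatin IC50 by a set fold.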

| SMILES | Cisplatin Sensitization Assay |
| --- | --- |
| Nc1nn2cc(F)cnc2c1C(=O)Nc1cnccc1N1CCC(C(=O)N2CCC3(COC3)C2)CC1 [I-G-84, N-(4-(4-(2-oxa-6-azaspiro[3.4]octane-6-carbonyl)piperidin-1-yl)pyridin-3-yl)-2-amino-6-fluoropyrazolo[1,5-a]pyrimidine-3-carboxamide] | +++ (Cisplatin sensitization value of <0.02 μM) |
| Nc1nn2cc(F)cnc2c1C(=O)Nc1cnccc1N1CCC(C(=O)N2CCOCC2)CC1 [I-G-85, 2-amino-6-fluoro-N-(4-(4-(morpholine-4-carbonyl)piperidin-1-yl)pyridin-3-yl)pyrazolo[1,5-a]pyrimidine-3-carboxamide] | +++ (Cisplatin sensitization value of <0.02 μM) |
| CS(=O)(=O)C1CN(C(=O)C2CCN(c3c(F)cncc3NC(=O)c3c(N)nn4cc(F)cnc34)CC2)C1 [I-G-86, 2-amino-6-fluoro-N-(5-fluoro-4-(4-(3-(methylsulfonyl)azetidine-1-carbonyl)piperidin-1-yl)pyridin-3-yl)pyrazolo[1,5-a]pyrimidine-3-carboxamide] | +++ (Cisplatin sensitization value of <0.02 μM) |
| Nc1nn2cc(Cl)cnc2c1C(=O)Nc1cncc(F)c1N1CCC(C(=O)N2CCN3CCC2CC3)CC1 [I-G-87, N-(4-(4-(1,4-diazabicyclo[3.2.2]nonane-4-carbonyl)piperidin-1-yl)-5-fluoropyridin-3-yl)-2-amino-6-chloropyrazolo[1,5-a]pyrimidine-3-carboxamide] | +++ (Cisplatin sensitization value of <0.02 μM) |
| Nc1nn2cc(F)cnc2c1C(=O)Nc1cnccc1N1CCC(C(=O)N2CC3(COC3)C2)CC1 [I-G-88, N-(4-(4-(2-oxa-6-azaspiro[3.3]heptane-6-carbonyl)piperidin-1-yl)pyridin-3-yl)-2-amino-6-fluoropyrazolo[1,5-a]pyrimidine-3-carboxamide] | +++ (Cisplatin sensitization value of <0.02 μM) |
| CS(=O)(=O)C1CN(C(=O)C2CCN(c3ccncc3NC(=O)c3c(N)nn4cc(F)cnc34)CC2)C1 [I-G-89, 2-amino-6-fluoro-N-(4-(4-(3-(methylsulfonyl)azetidine-1-carbonyl)piperidin-1-yl)pyridin-3-yl)pyrazolo[1,5-a]pyrimidine-3-carboxamide] | + (Cisplatin sensitization value>0.2 μM but <5 μM) |
| Nc1nn2cc(F)cnc2c1C(=O)Nc1cnccc1N1CCC(C(=O)N2CC3(CCO3)C2)CC1 [I-G-90, N-(4-(4-(1-oxa-6-azaspiro[3.3]heptane-6-carbonyl)piperidin-1-yl)pyridin-3-yl)-2-amino-6-fluoropyrazolo[1,5-a]pyrimidine-3-carboxamide] | +++ (Cisplatin sensitization value of <0.02 μM) |
| CCOC1CN(C(=O)C2CCN(c3ccncc3NC(=O)c3c(N)nn4cc(F)cnc34)CC2)C1 [I-G-91, 2-amino-N-(4-(4-(3-ethoxyazetidine-1-carbonyl)piperidin-1-yl)pyridin-3-yl)-6-fluoropyrazolo[1,5-a]pyrimidine-3-carboxamide] | +++ (Cisplatin sensitization value of <0.02 μM) |
| CC1(N2CCN(C(=O)C3CCN(c4c(F)cncc4NC(=O)c4c(N)nn5cc(F)cnc45)CC3)CC2)COC1 [I-G-92, 2-amino-6-fluoro-N-(5-fluoro-4-(4-(4-(3-methyloxetan-3-yl)piperazine-1-carbonyl)piperidin-1-yl)pyridin-3-yl)pyrazolo[1,5-a]pyrimidine-3-carboxamide] | +++ (Cisplatin sensitization value of <0.02 μM) |
| CO[C@@H]1CCN(C(=O)C2CCN(c3ccncc3NC(=O)c3c(N)nn4cc(F)cnc34)CC2)C1 [I-G-93, (R)-2-amino-6-fluoro-N-(4-(4-(3-methoxypyrrolidine-1-carbonyl)piperidin-1-yl)pyridin-3-yl)pyrazolo[1,5-a]pyrimidine-3-carboxamide] | +++ (Cisplatin sensitization value of <0.02 μM) |
| CO[C@H]1CCN(C(=O)C2CCN(c3ccncc3NC(=O)c3c(N)nn4cc(F)cnc34)CC2)C1 [I-G-94, (S)-2-amino-6-fluoro-N-(4-(4-(3-methoxypyrrolidine-1-carbonyl)piperidin-1-yl)pyridin-3-yl)pyrazolo[1,5-a]pyrimidine-3-carboxamide] | +++ (Cisplatin sensitization value of <0.02 μM) |
| C[N+]1([O-])CCN(C(=O)C2CCN(c3c(F)cncc3NC(=O)c3c(N)nn4cc(F)cnc34)CC2)CC1 [I-G-95, 4-(1-(3-(2-amino-6-fluoropyrazolo[1,5-a]pyrimidine-3-carboxamido)-5-fluoropyridin-4-yl)piperidine-4-carbonyl)-1-methylpiperazine 1-oxide] | +++ (Cisplatin sensitization value of <0.02 μM) |
| CN1CC(N2CCN(C(=O)C3CCN(c4c(F)cncc4NC(=O)c4c(N)nn5cc(F)cnc45)CC3)CC2)C1 [I-G-96, 2-amino-6-fluoro-N-(5-fluoro-4-(4-(4-(1-methylazetidin-3-yl)piperazine-1-carbonyl)piperidin-1-yl)pyridin-3-yl)pyrazolo[1,5-a]pyrimidine-3-carboxamide] | +++ (Cisplatin sensitization value of <0.02 μM) |
| COCC1CN(C(=O)C2CCN(c3c(F)cncc3NC(=O)c3c(N)nn4cc(F)cnc34)CC2)C1 [I-G-98, 2-amino-6-fluoro-N-(5-fluoro-4-(4-(3-(methoxymethyl)azetidine-1-carbonyl)piperidin-1-yl)pyridin-3-yl)pyrazolo[1,5-a]pyrimidine-3-carboxamide] | +++ (Cisplatin sensitization value of <0.02 μM) |
| CO[C@H]1CCN(C(=O)C2CCN(c3c(F)cncc3NC(=O)c3c(N)nn4cc(F)cnc34)CC2)C1 [I-G-99, (S)-2-amino-6-fluoro-N-(5-fluoro-4-(4-(3-methoxypyrrolidine-1-carbonyl)piperidin-1-yl)pyridin-3-yl)pyrazolo[1,5-a]pyrimidine-3-carboxamide] | +++ (Cisplatin sensitization value of <0.02 μM) |
| Nc1nn2cc(F)cnc2c1C(=O)Nc1cnccc1N1CCN(C2COC2)CC1 [I-N-1, 2-amino-6-fluoro-N-(4-(4-(oxetan-3-yl)piperazin-1-yl)pyridin-3-yl)pyrazolo[1,5-a]pyrimidine-3-carboxamide] | ++ (Cisplatin sensitization value>0.02 μM but <0.2 μM) |
| N#CCc1cnc2c(C(=O)Nc3cnccc3N3CCC(N)CC3)c(N)nn2c1 [I-N-2, 2-amino-N-(4-(4-aminopiperidin-1-yl)pyridin-3-yl)-6-(cyanomethyl)pyrazolo[1,5-a]pyrimidine-3-carboxamide] | +++ (Cisplatin sensitization value of <0.02 μM) |
| CN1CCN(c2ccncc2NC(=O)c2c(N)nn3cc(F)cnc23)CC1 [I-N-3, 2-amino-6-fluoro-N-(4-(4-methylpiperazin-1-yl)pyridin-3-yl)pyrazolo[1,5-a]pyrimidine-3-carboxamide] | +++ (Cisplatin sensitization value of <0.02 μM) |
| CC(C)N1CCN(c2ccncc2NC(=O)c2c(N)nn3cc(F)cnc23)CC1 [I-N-4, 2-amino-6-fluoro-N-(4-(4-isopropylpiperazin-1-yl)pyridin-3-yl)pyrazolo[1,5-a]pyrimidine-3-carboxamide] | +++ (Cisplatin sensitization value of <0.02 μM) |
| CN1CCN(c2c(NC(=O)c3c(N)nn4cc(F)cnc34)cncc2C2CC2)CC1 [I-N-5, 2-amino-N-(5-cyclopropyl-4-(4-methylpiperazin-1-yl)pyridin-3-yl)-6-fluoropyrazolo[1,5-a]pyrimidine-3-carboxamide] | ++ (Cisplatin sensitization value>0.02 μM but <0.2 μM) |
| Nc1nn2cc(F)cnc2c1C(=O)Nc1cnccc1-n1ccnc1 [I-N-7, N-(4-(1H-imidazol-1-yl)pyridin-3-yl)-2-amino-6-fluoropyrazolo[1,5-a]pyrimidine-3-carboxamide] | ++ (Cisplatin sensitization value>0.02 μM but <0.2 μM) |
| CNCCc1cnn(-c2ccncc2NC(=O)c2c(N)nn3cc(F)cnc23)c1 [I-N-8, 2-amino-6-fluoro-N-(4-(4-(2-(methylamino)ethyl)-1H-pyrazol-1-yl)pyridin-3-yl)pyrazolo[1,5-a]pyrimidine-3-carboxamide] | + (Cisplatin sensitization value>0.2 μM but <5 μM) |
| CN(C)CCc1cnn(-c2ccncc2NC(=O)c2c(N)nn3cc(F)cnc23)c1 [I-N-9, 2-amino-N-(4-(4-(2-(dimethylamino)ethyl)-1H-pyrazol-1-yl)pyridin-3-yl)-6-fluoropyrazolo[1,5-a]pyrimidine-3-carboxamide] | + (Cisplatin sensitization value>0.2 μM but <5 μM) |
| Nc1nn2cc(F)cnc2c1C(=O)Nc1cnccc1N1CCN([C@@H]2CCOC2)CC1 [I-N-10, (R)-2-amino-6-fluoro-N-(4-(4-(tetrahydrofuran-3-yl)piperazin-1-yl)pyridin-3-yl)pyrazolo[1,5-a]pyrimidine-3-carboxamide] | ++ (Cisplatin sensitization value>0.02 μM but <0.2 μM) |
| Nc1nn2cc(F)cnc2c1C(=O)Nc1cnccc1N1CCN(C2CCOCC2)CC1 [I-N-11, 2-amino-6-fluoro-N-(4-(4-(tetrahydro-2H-pyran-4-yl)piperazin-1-yl)pyridin-3-yl)pyrazolo[1,5-a]pyrimidine-3-carboxamide] | ++ (Cisplatin sensitization value>0.02 μM but <0.2 μM) |
| Nc1nn2cc(F)cnc2c1C(=O)Nc1cnccc1N1CCN([C@H]2CCOC2)CC1 [I-N-12, (S)-2-amino-6-fluoro-N-(4-(4-(tetrahydrofuran-3-yl)piperazin-1-yl)pyridin-3-yl)pyrazolo[1,5-a]pyrimidine-3-carboxamide] | +++ (Cisplatin sensitization value of <0.02 μM) |
| Nc1nn2cc(F)cnc2c1C(=O)Nc1cncc(F)c1N1CCN(C2COC2)CC1 [I-N-13, 2-amino-6-fluoro-N-(5-fluoro-4-(4-(oxetan-3-yl)piperazin-1-yl)pyridin-3-yl)pyrazolo[1,5-a]pyrimidine-3-carboxamide] | +++ (Cisplatin sensitization value of <0.02 μM) |
| CN1CCN(c2c(F)cncc2NC(=O)c2c(N)nn3cc(Cl)cnc23)CC1 [I-N-14, 2-amino-6-chloro-N-(5-fluoro-4-(4-methylpiperazin-1-yl)pyridin-3-yl)pyrazolo[1,5-a]pyrimidine-3-carboxamide] | +++ (Cisplatin sensitization value of <0.02 μM) |
